Where a name gives a salt, the structure may show the parent alone. Read-outs that look alike come from different tables or passages of the source.
Molecular target: IRAK4 (Homo sapiens (Human), UniProt Q9NWZ3)
Test: Screening the compounds against IRAK4 with ATP (Caliper, FAM-labeled peptide)
Format: biochemical
Settings: for IC50: read-out: IC50 (nM) (10 μM ATP); for activity, times better than that of the positive control compound CA4948: IRAK4 kinase inhibition relative to CA4948
Procedure: Prepare Ix kinase base buffer and stop buffer for testing kinases: (1) base buffer: 50 mM HEPES (pH 7.5), 0.0015% Brij-35; (2) stop buffer: 100 mM HEPES (pH 7.5), 0.015% Brij-35, 0.2% Coating Reagent #3, 50 mM EDTA. Then prepare compounds for testing: Dilute the compound to 50× of the final desired highest inhibitor concentration in reaction by 100% DMSO. Transfer 100 μL of this compound dilution to a well in a 96-well plate (source plate).
Serially dilute the compounds by 3-fold for a total of 10 points. Transfer 10 μL of the compound from the source plate to a new 96-well plate (intermediate plate) and add 90 μL of Ix kinase buffer. Shake the mixture on the intermediate plate for 10 min. Transfer 5 μL of each well from the 96-well intermediate plate to a 384-well plate in duplicates. Add 10 μL of 2.5× enzyme solution to each well of the 384-well assay plate and incubate at room temperature for 10 min. Add 10 μL, of 2.5×FAM-labeled peptide and ATP solution and incubate at 28° C. for a period of time. Finally stop the reaction by adding 30 μL of stop buffer and collect data on Caliper to obtain the IC50.

Chain of IRAK4 (Q9NWZ3 whole entry): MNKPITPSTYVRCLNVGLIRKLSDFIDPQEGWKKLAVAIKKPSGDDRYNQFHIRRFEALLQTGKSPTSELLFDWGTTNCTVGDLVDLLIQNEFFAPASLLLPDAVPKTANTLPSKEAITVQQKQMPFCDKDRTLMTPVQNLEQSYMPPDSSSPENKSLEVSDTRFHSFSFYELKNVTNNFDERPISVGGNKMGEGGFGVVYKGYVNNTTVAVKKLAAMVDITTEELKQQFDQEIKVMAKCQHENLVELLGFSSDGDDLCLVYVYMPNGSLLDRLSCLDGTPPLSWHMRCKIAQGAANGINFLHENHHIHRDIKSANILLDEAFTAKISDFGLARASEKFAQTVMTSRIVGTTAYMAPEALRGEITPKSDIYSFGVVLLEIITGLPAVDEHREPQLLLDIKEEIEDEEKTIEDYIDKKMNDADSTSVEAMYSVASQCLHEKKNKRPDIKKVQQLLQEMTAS

| IC50 (IRAK4 kinase, 10 μM ATP) [nM] | activity, times better than that of the positive control compound CA4948 | SMILES | IC50 [nM] |
| --- | --- | --- | --- |
| 179 | – | COc1cccc(NC(=O)c2cc3oc(N4CCOCC4)nc3nc2N2CCC(OC)CC2)n1 [Compound A46, 5-(4-Methoxypiperidin-1-yl)-N-(6-methoxypyridin-2-yl)-2-morpholinooxazolo[4,5-b]pyridine-6-carboxamide] | – |
| > 6000 | – | Cc1cc(-c2nc(NC(=O)c3cc4oc(N5CCOCC5)nc4nc3N3CC[C@@H](O)C3)co2)ccn1 [Compound A49, (R)-5-(3-Hydroxypyrrolidin-1-yl)-N-(2-(2-methylpyridin-4-yl)oxazol-4-yl)-2-morpholinooxazolo[4,5-b]pyridine-6-carboxamide] | – |
| 98 | – | COc1ncccc1NC(=O)c1cc2oc(N3CCOCC3)nc2nc1N1CCC(OC)CC1 [Compound A50, 5-(4-Methoxypiperidin-1-yl)-N-(2-methoxypyridin-3-yl)-2-morpholinooxazolo[4,5-b]pyridine-6-carboxamide] | – |
| 5.1 | – | COC1CCN(c2nc3nc(N4CCN(C)CC4)oc3cc2C(=O)Nc2cccc(-c3cnn(C)c3)n2)CC1 [Compound A52, 5-(4-Methoxypiperidin-1-yl)-N-(6-(1-methyl-1H-pyrazol-4-yl)pyridin-2-yl)-2-(4-methylpiperazin-1-yl)oxazolo[4,5-b]pyridine-6-carboxamide] | – |
| 21 | more than 5 times | COc1nc2nc(N3CCOCC3)oc2cc1C(=O)Nc1cccc(-c2cnn(C)c2)n1 [Compound A54, 5-Methoxy-N-(6-(1-methyl-1H-pyrazol-4-yl)pyridin-2-yl)-2-morpholinooxazolo[4,5-b]pyridine-6-carboxamide] | – |
| 5.9 | – | Cn1cc(-c2cccc(NC(=O)c3cc4oc(N5CCNCC5)nc4nc3N3CCC4(CCO4)CC3)n2)cn1 [Compound A55, N-(6-(1-Methyl-1H-pyrazol-4-yl)pyridin-2-yl)-2-(piperazin-1-yl)-5-(1-oxa-7-azaspiro[3.5]nonan-7-yl)oxazolo[4,5-b]pyridine-6-carboxamide] | – |
| 7.8 | – | Cn1cc(-c2cccc(NC(=O)c3cc4oc(N5CCNCC5)nc4nc3N3CCC(C)(O)CC3)n2)cn1 [Compound A56, 5-(4-Hydroxy-4-methylpiperidin-1-yl)-N-(6-(1-methyl-1H-pyrazol-4-yl)pyridin-2-yl)-2-(piperazin-1-yl)oxazolo[4,5-b]pyridine-6-carboxamide] | – |
| 4.9 | – | CN1CCN(c2nc3nc(N4CCC5(CCO5)CC4)c(C(=O)Nc4cccc(-c5cnn(C)c5)n4)cc3o2)CC1 [Compound A58, N-(6-(1-Methyl-1H-pyrazol-4-yl)pyridin-2-yl)-2-(4-methylpiperazin-1-yl)-5-(1-oxa-7-azaspiro[3.5]nonan-7-yl)oxazolo[4,5-b]pyridine-6-carboxamide] | – |
| 6.6 | – | CN1CCN(c2nc3nc(N4CCC(C)(O)CC4)c(C(=O)Nc4cccc(-c5cnn(C)c5)n4)cc3o2)CC1 [Compound A59, 5-(4-Hydroxy-4-methylpiperidin-1-yl)-N-(6-(1-methyl-1H-pyrazol-4-yl)pyridin-2-yl)-2-(4-methylpiperazin-1-yl)oxazolo[4,5-b]pyridine-6-carboxamide] | – |
| 4.5 | more than 25 times | COC1CCN(c2nc3c(cc2C(=O)Nc2cccc(-c4cnn(C)c4)n2)CC(C)(C)O3)CC1 [Compound B1, 6-(4-Methoxypiperidin-1-yl)-2,2-dimethyl-N-(6-(1-methyl-1H-pyrazol-4-yl)pyridin-2-yl)-2,3-dihydrofuro[2,3-b]pyridine-5-carboxamide] | – |
| 54 | – | CN1CCN(c2nc3c(cc2C(=O)Nc2cccc(-c4cnn(C)c4)n2)CC(C)(C)O3)CC1 [Compound B2, 2,2-Dimethyl-N-(6-(1-methyl-1H-pyrazol-4-yl)pyridin-2-yl)-6-(4-methylpiperazin-1-yl)-2,3-dihydrofuro[2,3-b]pyridine-5-carboxamide] | – |

The next lines start with the compound.

| SMILES | IC50 (IRAK4 kinase, 10 μM ATP) [nM] | activity, times better than that of the positive control compound CA4948 | IC50 [nM] |
| --- | --- | --- | --- |
| CN(C)C1CCN(c2nc3nc(N4CCOCC4)oc3cc2C(=O)Nc2cccc(-c3cnn(C)c3)n2)CC1 [Compound A23, 5-(4-(Dimethylamino)piperidin-1-yl)-N-(6-(1-methyl-1H-pyrazol-4-yl)pyridin-2-yl)-2-morpholinooxazolo[4,5-b]pyridine-6-carboxamide] | 425 | – | – |
| Cn1cc(-c2cccc(NC(=O)c3cc4oc(N5CCOCC5)nc4nc3N3CCC(C)(O)CC3)n2)cn1 [Compound A25, 5-(4-Hydroxy-4-methylpiperidin-1-yl)-N-(6-(1-methyl-1H-pyrazol-4-yl)pyridin-2-yl)-2-morpholinooxazolo[4,5-b]pyridine-6-carboxamide] | 8.6 | more than 10 times | – |
| Cn1cc(-c2cccc(NC(=O)c3cc4oc(N5CCOCC5)nc4nc3N3CCC4(CCO4)CC3)n2)cn1 [Compound A26, N-(6-(1-Methyl-1H-pyrazol-4-yl)pyridin-2-yl)-2-morpholino-5-(1-oxa-7-azaspiro[3.5]nonan-7-yl)oxazolo[4,5-b]pyridine-6-carboxamide] | – | more than 25 times | 4.2 |
| Cn1cc(-c2cccc(NC(=O)c3cc4oc(N5CCOCC5)nc4nc3N3CCN4CCC[C@H]4C3)n2)cn1 [Compound A27, (S)-5-(Hexahydropyrrolo[1,2-a]pyrazin-2(1H)-yl)-N-(6-(1-methyl-1H-pyrazol-4-yl)pyridin-2-yl)-2-morpholinooxazolo[4,5-b]pyridine-6-carboxamide] | 81 | – | – |
| Cn1cc(-c2cccc(NC(=O)c3cc4oc(N5CCOCC5)nc4nc3N3C4CCC3CC(O)C4)n2)cn1 (centres unmarked) [Compound A28, 5-(3-Hydroxy-8-azabicyclo[3.2.1]octan-8-yl)-N-(6-(1-methyl-1H-pyrazol-4-yl)pyridin-2-yl)-2-morpholinooxazolo[4,5-b]pyridine-6-carboxamide] | 80 | – | – |
| CC1CN(c2nc3nc(N4CCOCC4)oc3cc2C(=O)Nc2cccc(-c3cnn(C)c3)n2)CCN1C (centres unmarked) [Compound A30, 5-(3,4-Dimethylpiperazin-1-yl)-N-(6-(1-methyl-1H-pyrazol-4-yl)pyridin-2-yl)-2-morpholinooxazolo[4,5-b]pyridine-6-carboxamide Hydrochloride] | 125 | – | – |
| COCCN1CCN(c2nc3nc(N4CCOCC4)oc3cc2C(=O)Nc2cccc(-c3cnn(C)c3)n2)CC1 [Compound A34, 5-(4-(2-Methoxyethyl)piperazin-1-yl)-N-(6-(1-methyl-1H-pyrazol-4-yl)pyridin-2-yl)-2-morpholinooxazolo[4,5-b]pyridine-6-carboxamide Hydrochloride] | 40 | – | – |
| Cl.Cn1cc(-c2cccc(NC(=O)c3cc4oc(N5CCOCC5)nc4nc3N3CCN(C4CC4)CC3)n2)cn1 [Compound A35, 5-(4-Cyclopropylpiperazin-1-yl)-N-(6-(1-methyl-1H-pyrazol-4-yl)pyridin-2-yl)-2-morpholinooxazolo[4,5-b]pyridine-6-carboxamide Hydrochloride] | 8.9 | more than 10 times | – |
| Cl.Cn1cc(-c2cccc(NC(=O)c3cc4oc(N5CCOCC5)nc4nc3N3CCN(CCO)CC3)n2)cn1 [Compound A36, 5-(4-(2-Hydroxyethyl)piperazin-1-yl)-N-(6-(1-methyl-1H-pyrazol-4-yl)pyridin-2-yl)-2-morpholinooxazolo[4,5-b]pyridine-6-carboxamide Hydrochloride] | 17 | more than 5 times | – |
| CN1CCN(c2nc3nc(N4CCOCC4)oc3cc2C(=O)Nc2cccc(-c3cnn(C)c3)n2)CC1CO (centres unmarked) [Compound A37, 5-(3-(Hydroxymethyl)-4-methylpiperazin-1-yl)-N-(6-(1-methyl-1H-pyrazol-4-yl)pyridin-2-yl)-2-morpholinooxazolo[4,5-b]pyridine-6-carboxamide Hydrochloride] | 462 | – | – |
| N#Cc1cccc(NC(=O)c2cc3oc(N4CCOCC4)nc3nc2N2CCC(O)CC2)n1 [Compound A42, N-(6-Cyanopyridin-2-yl)-5-(4-hydroxypiperidin-1-yl)-2-morpholinooxazolo[4,5-b]pyridine-6-carboxamide] | 87 | – | – |
| COc1cccc(NC(=O)c2cc3oc(N4CCOCC4)nc3nc2N2CCC(O)CC2)n1 [Compound A43, 5-(4-Hydroxypiperidin-1-yl)-N-(6-methoxypyridin-2-yl)-2-morpholinooxazolo[4,5-b]pyridine-6-carboxamide] | 137 | – | – |
| COc1ncccc1NC(=O)c1cc2oc(N3CCOCC3)nc2nc1N1CCC(O)CC1 [Compound A45, 5-(4-Hydroxypiperidin-1-yl)-N-(2-methoxypyridin-3-yl)-2-morpholinooxazolo[4,5-b]pyridine-6-carboxamide] | 131 | – | – |
| COC1CCN(c2nc3nc(N4CCNCC4)oc3cc2C(=O)Nc2cccc(-c3cnn(C)c3)n2)CC1 [Compound A51, 5-(4-Methoxypiperidin-1-yl)-N-(6-(1-methyl-1H-pyrazol-4-yl)pyridin-2-yl)-2-(piperazin-1-yl)oxazolo[4,5-b]pyridine-6-carboxamide Hydrochloride] | – | – | 7 |
| COC1CCN(c2nc3nc(N4CCN(CCO)CC4)oc3cc2C(=O)Nc2cccc(-c3cnn(C)c3)n2)CC1 [Compound A57, 2-(4-(2-Hydroxyethyl)piperazin-1-yl)-5-(4-methoxypiperidin-1-yl)-N-(6-(1-methyl-1H-pyrazol-4-yl)pyridin-2-yl)oxazolo[4,5-b]pyridine-6-carboxamide] | – | – | 5.1 |
